Patent US20170144972A1, “METHODS OF LOWERING PROPROTEIN CONVERTASE SUBTILISIN/KEXIN TYPE 9 (PCSK9)” (Catabasis Pharmaceuticals, Inc., priority 2012, published 2017)

Tests used:
PCSK9 = PCSK9 secretion assay in HepG2 cells (PCSK9 ELISA of supernatant); assay type: cell-based; conditions: for lowering of PCSK9 (FIG. 1): 25 and 50 μM
Protocol: HepG2 cells (from ATCC, Catalog no. HB-8065) were maintained in DMEM (Invitrogen) supplemented with 10% fetal bovine serum (Invitrogen). The day prior to the PCSK9 assay, cells are seeded in 96-well collagen coated plates at 25,000 cells/well.
The compounds of the invention were stored at −20° C. until used. The test article compound was dissolved in 100% ethanol to a 50 mM stock solution. This was then diluted in FBS to a final concentration of 1 mM. This solution was placed in a sonicating water bath for 30 minutes. Subsequent dilutions were then made in FBS supplemented with an equivalent volume of ethanol and mixed by vortexing.
HepG2 cells were seeded onto a collagen coated 96-well plate (Becton Dickinson, Catalog no. 35-4407) the day prior to the assay, as described above. The next day, the cell medium was removed, washed once with […] serum free DMEM to remove any residual PCSK9, and replaced with […] of serum free DMEM. Ten microliters of each compound concentration prepared in FBS was then added. Each concentration of compound was tested in triplicate. The compound was incubated with the cells overnight for 16 hours. Following this incubation, 10 µL of AlamarBlue was added to each well and cells incubated for another 2 hours. The plates were then removed and AlamarBlue fluorescence was measured (excitation, 550 nm and […]) to assess cell viability. Cell culture supernatant was then diluted […] 1×RDSP Calibrator Diluent and PCSK9 ELISA was then performed with […] of this diluted sample, as per the manufacturer's instructions. The ELISA was measured on a Victor X5 multilabel plate reader (PerkinElmer) at an absorbance of 450 nm with background correction measured at 550 nm (The PCSK9 Elisa kits can be purchased from R&D System, Catalog no. DPC900).
Alternatively, an IC50 could also be obtained when this type of assay was carried out using at least 6 different concentrations of the test compounds. Table 1 lists the IC50 values for the compounds tested in this assay.

[1] = tested on: Zucker fa/fa Rat model of Dyslipidemia; experiment: Plasma triglyceride level of the Zucker fa/fa rat model of dyslipidemia; assay type: in vivo; conditions: male Zucker rats, po qd, 10, 30, 100 and 300 mg/kg, blood sample day 4
Protocol: Male Zucker rats (HsdHlr: Zucker-Lepr̂fa) between 8-10 weeks of age were purchased from Harlan and maintained on Purina Rodent Diet (5001) for the duration of the study. Animals were randomized and assigned to treatment arms based on body weight and plasma triglyceride (TG) levels (n=8). Inclusion criteria for the study include body weight >300 grams and fed TG levels in plasma >800 mg/dL. Dosing will be initiated on day 1 and continue through day 5. Dosing will be daily (qd) by oral gavage (po) for all treatment arms (Compound I-8 was administered orally at 4 different doses, 10, 30, 100 and 300 mg/kg; in addition, a combination of niacin/EPA in a ratio of 100/200 mg/kg was also employed). Body weights will be measured for all rats on days 1 through 5. On day 4, a blood sample (fed) will be collected from each rat, processed for plasma and stored at −80° C. Plasma triglyceride level was determined from commercial kits using standard protocols. […] Because compound I-8 was able to lower fed plasma triglyceride, it is useful to treat dyslipidemia as well as other diseases such as type I hyperlipoproteinemia and type 5 hyperlipoproteinemia.

APOE*3Leiden mice = experiment: Plasma cholesterol and triglycerides in ApoE3Leiden mice on Western type diet, 2 and 4 weeks of treatment; assay type: in vivo; conditions: female APOE*3Leiden mice, WTD, I-8 0.75% w/w in diet, atorvastatin 0.0015% w/w in diet
Protocol: The study was conducted using female APOE*3Leiden mice (groups of each n=10) and one untreated reference control group on chow (n=5). To induce dyslipidemia, a high cholesterol Western type diet containing 1% cholesterol, 15% cacao butter, 40.5% sucrose and 1% corn oil (WTD) was fed to the mice for a total experimental period of 20 weeks (of which 4 weeks are a run-in period).
The dyslipidemic mice were grouped on the basis of plasma cholesterol at t=0 assayed in 4 h fasting blood. Mice with low cholesterol after the run-in period were excluded so that homogenous experimental groups were obtained. A group of reference mice (n=5) remained on a chow diet during the complete study period (normolipidemic reference mice).
This mix was then added to the master mix (containing the rest of the ingredients) and mixed thoroughly. The diet was frozen to −20° C. On the subsequent day, the diet was broken into small pellets (approx 5 g per piece) and freeze dried, and stored in vacuum sealed bags (approx 500 g) at −20° C. until use. The diets were refreshed daily and unused diet was discarded.
1) Body weight at −4, 0, 2, 4 weeks 2) Food intake (g/day/mouse) at 0, 2, 4 weeks (per cage) 3) Plasma total cholesterol at −4, 0, 2, 4 weeks (individually) 4) Plasma triglycerides at −4, 0, 2, 4 weeks (individually) 5) Lipoprotein profiles at 0 (pool of all animals) and 4 weeks (cholesterol distribution over VLDL, LDL and HDL-sized particles, analysis on group level).
EDTA plasma was collected in weeks −4, 0, 2 and 4 weeks.

ApoE*3 Leiden mice = experiment: Liver weight, plasma cholesterol and triglycerides of ApoE*3 Leiden mice, 16 weeks of treatment; assay type: in vivo; conditions: I-8 in WTD at 7.5 g/kg
Protocol: The same experimental design used in example 6 was used. Two treatment groups were used (n=15). The control animals were kept on a Western type diet (WTD) consisting of 1% cholesterol, 15% cacao butter, 40.5% sucrose, and 1% corn oil. For the treatment group, compound I-8 was administered in the above WTD at a ratio of 7.5 g/kg. Animals were maintained on the WTD or treatment group for 16 weeks. At the conclusion of the study, plasma cholesterol and triglyceride levels were recorded, as well as the weight of the liver. There was a significant decrease in plasma cholesterol, triglyceride levels as well as liver weight in the treatment group. After 16 weeks of treatment, the cholesterol level of the treatment group was 420 mg/dL, compared with a level of 750 mg/dL for the control group; the triglyceride level was 110 mg/dL, compared with a level of 160 mg/dL for the control group.

## CC/C=C\C/C=C\C/C=C\C/C=C\C/C=C\CCCC(=O)NCCNC(=O)c1cccnc1 [Compound I-8, N-(2-(5Z,8Z,11Z,14Z,17Z)-eicosa-5,8,11,14,17-pentaenamidoethyl)nicotinamide]
PCSK9; HepG2 cells incubated with 10 μM of atorvastatin along with test article
  PCSK9 levels in HepG2 cells incubated with atorvastatin (FIG. 2): decrease PCSK9 levels in a dose response manner to well below the atorvastatin level induced levels
PCSK9; HepG2 cells
  lowering of PCSK9 (FIG. 1): significant lowering of PCSK9
[1]
  fed plasma triglyceride level (FIG. 3): dose dependent decrease
APOE*3Leiden mice; 2 weeks
  plasma cholesterol at t=2 weeks (FIG. 4): statistically significant reduction
APOE*3Leiden mice; 4 weeks
  plasma cholesterol after 4 weeks of treatment (FIG. 5): Comparable level of cholesterol reduction
  plasma triglyceride levels after 4 weeks of treatment (FIG. 6): significant reduction
ApoE*3 Leiden mice
  liver weight (FIG. 7): statistically significant drop

## CC/C=C\C/C=C\C/C=C\C/C=C\C/C=C\CCCC(=O)NCCNC(=O)c1ccccc1 [II-1, N-(2-((5Z,8Z,11Z,14Z,17Z)-icosa-5,8,11,14,17-pentaenamido)ethyl)benzamide]
PCSK9; HepG2 cells
  lowering of PCSK9 (FIG. 1): significant lowering of PCSK9

## CC/C=C\C/C=C\C/C=C\C/C=C\C/C=C\CCCC(=O)NCCNC(C)=O [Compound A, (5Z,8Z,11Z,14Z,17Z)—N-(2-acetamidoethyl)icosa-5,8,11,14,17-pentaenamide, reference compound]
PCSK9; HepG2 cells, highest tested concentration of 50 μM
  activity toward PCSK9 (FIG. 1): essentially no activity

## CC(C)c1c(C(=O)Nc2ccccc2)c(-c2ccccc2)c(-c2ccc(F)cc2)n1CC[C@@H](O)C[C@@H](O)CC(=O)O [atorvastatin, reference compound]
PCSK9; HepG2 cells, 10 μM atorvastatin alone
  PCSK9 secretion (FIG. 2): increases PCSK9 secretion
